# Results taken from ChEMBL document CHEMBL4152294, “Design, synthesis, structure-activity relationships study and X-ray crystallography of 3-substituted-indolin-2-one-5-carboxamide derivatives as PAK4 inhibitors” (Eur J Med Chem, 2018).
# pIC50: −log10 of the molar value.
# Tests used:
# A549 = experiment: Antiproliferative activity against human A549 cells after 72 hrs by CCK8 assay; type: functional, cell-based; details: A549, 72 h
# HCT-116 = experiment: Antiproliferative activity against human HCT116 cells after 72 hrs by CCK8 assay; type: functional, cell-based; details: HCT-116, 72 h
pIC50 (A549),pIC50 (HCT-116),SMILES
5.89,6.20,O=C1Nc2ccc(C(=O)N[C@H](CO)c3ccccc3)cc2/C1=C(/c1ncc[nH]1)c1ccccc1Cl
6.18,7.06,O=C1Nc2ccc(C(=O)N[C@H](CO)c3ccccc3)cc2/C1=C(/c1ncc[nH]1)c1ccccc1F
6.29,7.11,Cc1c[nH]c(/C(=C2\C(=O)Nc3ccc(C(=O)N[C@H](CO)c4ccccc4)cc32)c2ccccc2)n1

# Further lines, the compound ahead of its results:
SMILES,pIC50 (A549),pIC50 (HCT-116)
Cc1nc(/C(=C2\C(=O)Nc3ccc(C(=O)N[C@H](CO)c4ccccc4)cc32)c2ccccc2)[nH]c1C,4.75,5.59
Cc1ncc(/C=C2\C(=O)Nc3ccc(C(=O)N[C@H](CO)c4ccccc4)cc32)[nH]1,4.25,5.39
CCc1ncc(/C=C2\C(=O)Nc3ccc(C(=O)N[C@H](CO)c4ccccc4)cc32)[nH]1,4.53,5.54
Cc1nc(Nc2n[nH]c3c2CN(C(=O)N[C@H](CN(C)C)c2ccccc2)C3(C)C)c2sccc2n1 [PF-03758309],6.33,7.41
